One assay deals with NIH3T3 cells. The assay is described as follows: Non-specific cytotoxicity assay, cell growth by [3H]-thymidine incorporation. In kind it is cell-based. The protocol: Confluent NIH3T3 cells were cultured in the absence (control, lane 1) or presence of 1mM CMDA prodrug (+CMDA, lane 2) for 18 hours. After incubation, the cells were diluted into fresh dishes (at a dilution of 100 fold) and allowed to grow for a further 6 days after which time the survival of the cells was determined by [^3H] thymidine incorporation. The results are expressed in terms of the % growth in terms of the control, which were considered to represent 100% cell growth.
Confluent NIH3T3 cells were cultured in the presence of 1mM CMDA prodrug in the absence of any additions (control, lane 3) or in the presence of the indicated fusion proteins (lanes 4-8). The additions were : lane 4, CPH6; lane 5, CPV161H6; lane 6, V161CPH6; lane 7, V115CPH6; lane 8, pEFCPV109H6. For each fusion, 0.3 to 0.9 nM of the fusions were added as determined by quantitative immunoprotein blotting. The cells were incubated and processed as in section A above for cell growth. […]
For the first assay, we wished to establish that CPH6 and the fusion proteins were able to direct prodrug dependent cyotoxicity of NIH3T3 cells, in a non-targeted manner. […] Samples of the purified proteins were added to NIH3T3 cells in the presence of the CMDA prodrug and the effects on cell viability were determined by measuring cell growth by [3H]-thymidine incorporation.
(Incorporation of labelled thymidine or its analogues reports DNA synthesis.)

The test system of assay [1] is human umbilical vein endothelial (Hu-V-ec) cells. The assay is described as follows: VEGF-directed cytotoxicity assay, cell growth by [3H]-thymidine incorporation. The assay is classed as cell-based. The protocol: Confluent Hu-V-ec cells were cultured in the absence (control, lane 1) or presence of 1mM CMDA prodrug (+ CMDA, lane 2) for 18 hours. After incubation, the cells were diluted into fresh dishes (at a dilution of 3 fold) and allowed to grow for a further 6 days after which time the survival of the cells was determined by [^3H] thymidine incorporation. The results are expressed in terms of the % growth in terms of the control, which were considered to represent 100% cell growth.
Confluent Hu-V-ec cells were cultured in the absence of any additions (control, lane 3) or in the presence of CPH6 (27 nM, lane 4), or of V115CPH6 (11nM, lane 5) for 30 min. The cells were then washed 6 times with fresh medium and incubated overnight in the presence of 1mM CMDA. The cells were re-plated at a dilution of 1/3 and allowed to grow for a further 4 days after which time the cell growth was estimated by [3H]thymidine incorporation. The results are expressed in terms of the % growth in terms of the control lane, which were considered to represent 100% cell growth.
The fusion proteins were assesed for their ability to direct the CMDA-dependent killing of cells which express specific receptors for VEGF on their surface. For this analysis, we employed human umbilical vein endothelial (Hu-V-ec) cells, which are dependent for growth on VEGF (Prog Growth Factor Res, 5, 89, 1994). […] The cells were incubated in the presence of CPH6, or V115CPH6 for 30 min to allow the fusion proteins to bind to the cell surface and then the cells were washed to remove unbound protein. CMDA was added and cell survival was determined by [3H]-thymidine incorporation.

Assay [2] concerns the target bacterially produced CPG2 (Carboxypeptidase G2, wild type) (Pseudomonas sp., UniProt P06621). The note with it: substrate MTX; cited from earlier work.
Assay [3] deals with VEGF/CPG2 fusion protein V161CPH6 (VEGF amino acids 1-161 fused to CPG2 amino acids 23-415, polyhistidine tag), SEQ ID No. 8 (UniProt P06621+P15692, form not given/N222Q/N264Q/N272Q). The settings on record: substrate MTX; V161CPH6 expressed in Sf9 cells, Ni++-NTA purified; 25°C, pH 7.3. An excerpt: (§1) Using this protocol, CPH6, V161CPH6, V115CPH6 and CPV109H6 were all purified from Sf9 cells by Ni++-NTA-Agarose affinity chromatography as described above. These samples were used to determine the affinity of the CPG2 moiety for the substrate MTX.

Assay [4] has as its target CPG2/VEGF fusion protein CPV109H6 (CPG2 amino acids 23-415 fused via peptide spacer to VEGF amino acids 1-109, polyhistidine tag), SEQ ID No. 18 (UniProt P06621+P15692, form not given/N222Q/N264Q/N272Q). The note with it: substrate MTX; CPV109H6 expressed in Sf9 cells, Ni++-NTA purified; 25°C, pH 7.3.
From the text: as §1

Assay [5] addresses Carboxypeptidase G2 (CPG2) construct CPH6 (c-erbB2 signal peptide, CPG2 amino acids 23-415, three Asn -> Gln glycosylation-site mutations N222, 264 and 272 > Q, (Pseudomonas sp., UniProt P06621, N222Q/N264Q/N272Q)). The note with it: substrate MTX; CPH6 expressed in Sf9 cells, Ni++-NTA purified; 25°C, pH 7.3.
From the text: as §1

Assay [6] deals with VEGF/CPG2 fusion protein V115CPH6 (VEGF amino acids 1-115 fused to CPG2, polyhistidine tag), SEQ ID No. 10 (UniProt P06621+P15692, form not given/N222Q/N264Q/N272Q). The settings on record: substrate MTX; V115CPH6 expressed in Sf9 cells, Ni++-NTA purified; 25°C, pH 7.3.
From the text: as §1

Take `CS(=O)(=O)OCCN(CCCl)c1ccc(C(=O)N[C@@H](CCC(=O)O)C(=O)O)cc1` [CMDA, N-4-[(2-chloroethyl)(2-mesyloxyethyl)amino]benzoyl-L-glutamic acid]: the growth of cells entry with NIH3T3 cells (1mM CMDA alone, 18 hours, then 6 days growth) is “does not significantly affect the growth”. Besides, in the assay on NIH3T3 cells (1mM CMDA in the presence of sub-nanomolar (0.3 to 0.9 nM) CPH6 or each of the fusion proteins), the cell death entry is on record as “complete cell death”. Further, the “sensitivity (growth rate)” value in assay [1] (1mM CMDA alone, 18 hours) is on record as “not significantly sensitive”. Further, the “growth rate of the cells” value in assay [1] (cells pre-incubated with CPH6 (27 nM) 30 min, washed, then 1mM CMDA overnight) is on record as “no significant affect on the growth rate”. Besides, the “inhibition of cell growth” value in assay [1] (cells pre-incubated with V115CPH6 (11nM) 30 min, washed, then 1mM CMDA overnight) was more than 90%.
A word on the Km: it is the concentration of substrate that gives half-maximal velocity. `CN(Cc1cnc2nc(N)nc(N)c2n1)c1ccc(C(=O)N[C@@H](CCC(=O)O)C(=O)O)cc1` [MTX, Methotrexate]: the Km in assay [2] was approximately 10 µM; in assay [3], 18.2 ± 1.5 µM; in assay [4], 9.1 ± 1.1 µM; in assay [5], 19.6 ± 3.2 µM; in assay [6], 17 ± 1 µM.

These data come from patent EP0876160B1, “LIGAND DIRECTED ENZYME PRODRUG THERAPY” (priority 1996, dated 1997).
